Laboratory results reported in patent US20210069295A1, “GALECTINS CONTROL MTOR IN RESPONSE TO ENDOMEMBRANE DAMAGE AND PROVIDE A MECHANISM AND TARGET FOR THE TREATMENT OF AUTOPHAGY-RELATED DISEASES” (STC. UNM, priority 2017, published 2021).
Peptide text beside a SMILES is read from it.

Experiments:
mTOR, Raptor, RagA, p14 = experiment: APEX2 proximity biotinylation with streptavidin enrichment and immunoblotting in HEK293T cells; type: cell-based; settings: for mTOR, Raptor and RagA found in the proximity of the galectin: APEX2-galectin fusions
Protocol: (A) Analysis of the puncta formation of galectins in response to GPN. HeLa cells overexpressing YFP-fused with the indicated galectins were treated with 100 μM GPN or without (Ctrl) in full medium for 1 h and galectin puncta were quantified by HC. […] White masks, algorithm defined cell boundaries (primary objects); green masks, computer-identified galectins puncta (target objects). Data, means±SEM, n≥3 independent experiments (500 primary objects counted per well; ≥5 wells/sample per each experiment); *p<0.05, **p<0.01, † p≥0.05, ANOVA. (B) Immunoprecipitation analysis of the interactions between galectins and mTOR or RagA GTPase. HEK293T cells overexpressing FLAG-tagged galectins were subjected to anti-FLAG immunoprecipitation followed by immunoblotting for endogenous mTOR or RagA. (C) Immunoprecipitation analysis of interactions between Gal8 and mTOR protein complexes in response to GPN treatment. THP-1 cells not treated or treated with 100 μM GPN in full medium for 1 h were subjected to immunoprecipitation with anti-Gal8 antibody, followed by immunoblotting for endogenous RagA, p14, mTOR or Raptor. (D) Analysis of the proximity of Gal8 to mTOR and other proteins in mTOR complexes in response to GPN. Biotinylated proteins from HEK293T cell expressing APEX2-vector or APEX2-Gal8, after GPN and biotin phenol (BP) treatment were affinity-enriched by binding to streptavidin-beads, and samples were analyzed by immunoblotting analysis for endogenous RagA, p14, mTOR or Raptor. Data, means±SEM, (n=3), **p<0.01, ANOVA. (E) Immunoprecipitation analysis of the interactions between Gal8 and RagA GTPase and its mutants. Lysates of HEK293T cells overexpressing FLAG-Gal8 and HA-tagged RagA proteins (RagAWT, RagAT21L or RagAQ66L) were subjected to anti-FLAG immunoprecipitation, followed by immunoblotting for HA-tagged RagA proteins. (F) Immunoprecipitation analysis of the interactions between Gal8 and RagC GTPase and its mutants. HEK293T cells overexpressing FLAG-Gal8 and HA-tagged RagC proteins (RagCWT, RagCS75L or RagCQ120L) lysates were subjected to anti-FLAG immunoprecipitation, followed by immunoblotting for HA-tagged RagC proteins.
HEK293T cells transfected with pJJiaDEST-APEX2 or pJJiaDEST-APEX2-Gal8 were incubated with 100 μM GPN (Cayman Chemicals) in full medium for 1 h (confluence of cells remained at 70-80%). Cells were next incubated in 500 μM biotin-phenol (AdipoGen) in full medium for the last 30 min of GPN incubation. A 1 min pulse with 1 mM H2O2 at room temperature was stopped with quenching buffer (10 mM sodium ascorbate, 10 mM sodium azide and 5 mM Trolox in Dulbecco's Phosphate Buffered Saline (DPBS)). All samples were washed twice with quenching buffer, and twice with DPBS.
For immunoblotting analysis, cell pellets were lysed with 500 μL ice-cold RIPA lysis buffer (ThermoFisher Scientific) with protease inhibitor cocktail (Roche), 1 mM PMSF (sigma), 10 mM sodium ascorbate, 10 mM sodium azide and 5 mM Trolox, gently pipetted and then the incubated for 30 min. The lysates were clarified by centrifugation at 13,000 rpm for 5 min, followed by measuring protein concentrations using a Pierce BCA Protein Assay kit, with freshly made bovine serum albumin (BSA) solutions as standards. Streptavidin-coated magnetic beads (ThermoFisher Scientific) were washed with RIPA lysis buffer. 3 mg of each sample was mixed with 100 μL of streptavidin beads. […] 15 μL of each sample was separated by SDS-PAGE and analyzed by Western blot using indicated antibodies.

[1] = test system: LAMTOR1/p18 and Rag GTPases; experiment: GST-pulldown assay with in vitro translated proteins; type: binding; settings: 35S-methionine labeled
Protocol: (D) Immunoprecipitation analysis of interactions between Gal8 and Ragulator components p14, p18 and MP1. HEK293T cells overexpressing FLAG-tagged Gal8 were immunoprecipitated/collected with anti-FLAG (beads). Cell lysates and collected immune complexes were blotted for endogenous p18, p14, and MP1. (E)(i-ii) GST pulldown assay with in vitro translated Myc-tagged Gal8 or Gal9 and GST-tagged p18. GST-tagged p18 immobilized on Gluthatione sepharose beads were incubated with in vitro translated Myc-tagged Gal8 or Gal9 radiolabeled with 35S-methionine. Interactions were assessed by autoradiography. Data (% binding), means±SEM, n=3, † p≥0.05, **p<0.01, ANOVA. (F)(i-iv) GST pulldown assay with in vitro translated Myc-tagged Rag proteins and GST-tagged Gal8. […] Interactions were assessed by autoradiography. […]
GST and GST-tagged proteins were produced in SoluBL21 Competent E. coli (Genlantis, C700200) and purified by binding to Glutathionine Sepharose 4 Fast Flow beads (GE Healthcare, 17-5132-01) while myc-tagged proteins were in vitro translated using the TNT T7 Reticulocyte Lysate System (Promega, 14610) in the presence of ^35S-methionine. […] Radioactive signals were detected by Fujifilm bioimaging analyzer BAS-5000 and quantified with ScienceLab ImageGuage software (Fujifilm).

AMPKα = experiment: Co-IP of FLAG-tagged galectins with endogenous AMPKα in HEK293T cells; type: binding; settings: HEK293T overexpressing FLAG-tagged galectins

| Compound | proximity of Gal8 to Ragulator (LAMTOR2/p14) and RagA (mTOR, Raptor, RagA, p14; APEX2-Gal8 HEK293T, GPN) | proximity of Gal8 to mTOR and Raptor (mTOR, Raptor, RagA, p14; APEX2-Gal8 HEK293T, GPN) | direct binding to Ragulator (LAMTOR1/p18) and Rag GTPases in GST-pulldown [1] | mTOR, Raptor and RagA found in the proximity of the galectin (mTOR, Raptor, RagA, p14) | AMPKα in complexes (co-IP) with galectin (AMPKα) |
| --- | --- | --- | --- | --- | --- |
| NCC(=O)N[C@@H](Cc1ccccc1)C(=O)Nc1ccc2ccccc2c1 [GPN, glycyl-L-phenylalanine 2-naphththylamide] (HELM PEPTIDE1{G.F.[c1ccc2cc(N[*:1])ccc2c1]}$$$$V2.0) | increased proximity | decreased proximity | – | – | – |
| Gal8: protein of the galectin family encoded by the gene LGALS8; beta-galactoside-binding lectin | – | – | direct interactions | in the proximity | not detected |
| Gal9: beta-galactoside-binding lectin protein of the galectin family | – | – | did not show direct binding | not in the proximity | found in co-IPs |
